Columns and labels:
[1] = molecular target: PKA (Bos taurus, UniProt P00517); test: PKA assays at different ATPγS concentrations on a microchip; type: biochemical; conditions: read-out: Km (Michaelis-Menten constant for the co-factor)
Protocol: (§1) A typical reaction mixture (50 μl) contained 20 mM HEPES pH 7.5, 10 mM MgCl2, 50 μM fluorescein labeled Kemptide (Research Genetics, Huntsville, Ala., USA), 500 μM ATPγS (Sigma, St. Louis, Mo., USA, #A-1388), and 1 μl of the catalytic subunit of cAMP dependent protein kinase A (Promega Corp., Madison, Wis., USA, #V5161). The approximate final concentration of the enzyme was 700 nM. […] The mixture was incubated at room temperature for 15 min and the reaction terminated by the addition of EDTA to 45 mM. As a negative control, EDTA was added to one of the reaction mixtures before the addition of the kinase. The extent of thiophosphorylation was then analyzed by capillary electrophoresis with fluorescence detection either on a Beckman P/ACE System 5500 instrument, using a 50 μm fused silica capillary with 50 mM borate, pH 8.6 as the separation buffer, or on a microfabricated chip as described in Cohen et al., Anal. Chem. 273:89-97 (1999). Substrate and product peak areas were integrated and the extent of substrate phosphorylation was determined from their ratio.
Following a 15-min incubation, the reactions were stopped by the addition of EDTA, treated with iodoacetyl-LC-biotin, and analyzed by fluorescence polarization in the presence of streptavidin. […]

[2] = molecular target: T1, catalytic subunit of cAMP dependent protein kinase A (PKA) (Bos taurus, UniProt P00517); test: Homogeneous PKA kinase assay: thiophosphorylation, biotinylation, fluorescence polarization with streptavidin; type: biochemical
T1 construct: purchased Promega Corp. V5161
Protocol: as §1, with “ratio. […] The outcome of the biotinylation reaction could be determined at this point by capillary electrophoresis as described above, however, this is not required, nor is it preferred. […] An aliquot (1 μl) of the biotinylation reaction from step B was diluted in 400 μl of 50 mM HEPES, pH 7.4 and its fluorescence polarization measured. […]” for “ratio.”

Row | IC50 ([2]; H-89 0.5-10 μM, 500 μM ATPγS, 50 μM fluorescein labeled Kemptide, 15-min incubation at room temperature, estimated from substrate conversion) [nM] | Ki ([2]; calculated from IC50=Ki(1+[S]/Km), ATPγS 500 μM, Km about 6 μM) [nM] | Structure (SMILES) | Km [1] [µM]
1 |  |  | Nc1ncnc2c1ncn2[C@@H]1O[C@H](COP(=O)(O)OP(=O)(O)OP(O)(O)=S)[C@@H](O)[C@H]1O [ATPγS] | ~6
2 | ~5000 | ~60 | O=S(=O)(NCCNC/C=C/c1ccc(Br)cc1)c1cccc2cnccc12 [H-89] | 
